Common to all, as to assay: Determination of MIC values (BHI broth, 96 well microtiter plate)
What all share (type): cell-based

For assay [1], the system named is vancomycin-resistant Enterococcus spp. (VRE). The settings on record: VREF, BHI broth, overnight 37° C.; for MIC: Enterococcus, VRE, read-out: MIC VREF. In a few lines:
(§1)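 BHI broth microdilution; final compound 25, 12.5, 6.25, 3.125, 1.56, 0.78, 0.39, 0 µg/mL (1% DMSO). Inoculum 10^5–10^6 cells/mL; 37° C, ~7-10% CO2, ~16 h. MIC = lowest concentration, no observable growth.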

A further assay concerns Streptococcus pneumoniae. To be noted: S. pneu, BHI broth, overnight 37° C.; for MIC: Streptococcus pneumoniae, read-out: MIC S. pneu. An outline of the steps:
as §1

The test system of assay [2] is methicillin-resistant Staphylococcus aureus (MRSA). The settings on record: MRSA, BHI broth, overnight 37° C.; for MIC: Staphylococcus aureus, read-out: MIC MRSA. In a few lines: as §1

Molecules are shown by their SMILES.

The values that follow come from patent US6376670B1, “Quinoline-indole antimicrobial agents, uses and compositions related thereto” (Sepracor Inc., priority 1997, dated 2002).

The term MIC denotes the smallest concentration in the dilution series that meets the test's criterion for growth inhibition.

On to `NCc1ccc(CNC(=O)c2cc(-c3c[nH]c4ccc(Br)cc34)nc3c(Cl)c(Cl)ccc23)cc1` [Example 275], for which the MIC in assay [1] is < 7 µg/mL; in the assay on Streptococcus pneumoniae, < 25 µg/mL; in assay [2], < 7 µg/mL.

Regarding `NCc1cccc(CNC(=O)c2cc(-c3c[nH]c4ccc(Br)cc34)nc3c(Cl)c(Cl)ccc23)c1` [Example 276], the figures for the minimal inhibitory concentration (MIC) (in assay [1]; with Streptococcus pneumoniae; in assay [2]) were < 7 µg/mL, > 25 µg/mL and < 7 µg/mL, respectively.

Take `NCC1CCC(CNC(=O)c2cc(-c3c[nH]c4ccc(Br)cc34)nc3c(Cl)c(Cl)ccc23)CC1` (stereo not drawn) [Example 277]: the minimal inhibitory concentration (MIC) (in assay [1]; in the assay on Streptococcus pneumoniae; in assay [2]) was < 7 µg/mL throughout.

Take `NCC1CCCC(CNC(=O)c2cc(-c3c[nH]c4ccc(Br)cc34)nc3c(Cl)c(Cl)ccc23)C1` (stereo not drawn) [Example 278]: the MIC (in assay [1]; in the assay on Streptococcus pneumoniae; in assay [2]) was < 7 µg/mL in each case.

As for `NCCNC(=O)c1cc(-c2c[nH]c3ccc(Br)cc23)nc2c(Cl)c(Cl)ccc12` [Example 279], the MIC (in assay [1]; with Streptococcus pneumoniae; in assay [2]) was < 7 µg/mL throughout.

With `NC1CCCCC1NC(=O)c1cc(-c2c[nH]c3ccc(Br)cc23)nc2c(Cl)c(Cl)ccc12` (stereo not drawn) [Example 280], the MIC (in assay [1]; with Streptococcus pneumoniae; in assay [2]) was < 7 µg/mL each time.

`NCc1ccc(CNC(=O)c2cc(-c3c[nH]c4ccc(Br)cc34)nc3cc(Cl)c(C#CCN4CCc5ccccc5C4)cc23)cc1` [Example 281]: the figures for the MIC (in assay [1]; in the assay on Streptococcus pneumoniae; in assay [2]) were > 25 µg/mL, > 25 µg/mL and < 25 µg/mL, respectively.

On to `NCc1ccc(CNC(=O)c2cc(-c3c[nH]c4ccc(Br)cc34)nc3cc(Cl)c(C#CCN4CC=CCC4)cc23)cc1` [Example 282], for which the MIC (in assay [1]; in the assay with Streptococcus pneumoniae; in assay [2]) was < 7 µg/mL throughout.

As for `NCc1ccc(CNC(=O)c2cc(-c3c[nH]c4ccc(Br)cc34)nc3ccccc23)cc1` [Example 283], the MIC (in assay [1]; in the assay with Streptococcus pneumoniae; in assay [2]) was < 7 µg/mL in each case.

In the case of `NCCNC(=O)c1cc(-c2c[nH]c3ccc(Br)cc23)nc2ccc(Br)cc12` [Example 285], the MIC (in assay [1]; in the assay with Streptococcus pneumoniae; in assay [2]) was < 7 µg/mL throughout.

On to `Clc1ccc2nc(-c3c[nH]c4ccc(Cl)cc34)ccc2c1` [Example 287], for which the figures for the MIC (in assay [1]; with Streptococcus pneumoniae; in assay [2]) were > 25 µg/mL, < 7 µg/mL and < 7 µg/mL, respectively.

Take `Fc1ccc2c(-c3ccc4cc(Cl)ccc4n3)c[nH]c2c1` [Example 288]: the MIC (in assay [1]; with Streptococcus pneumoniae; in assay [2]) was < 7 µg/mL in each case.

Take `Clc1ccc2nc(-c3c[nH]c4ccc(OCc5ccccc5)cc34)ccc2c1` [Example 289]: the minimal inhibitory concentration (MIC) was > 25 µg/mL in assay [1], < 7 µg/mL with Streptococcus pneumoniae and < 7 µg/mL in assay [2].

As for `COc1ccc2[nH]cc(-c3ccc4cc(Cl)ccc4n3)c2c1` [Example 290], the MIC (in assay [1]; in the assay on Streptococcus pneumoniae; in assay [2]) was > 25 µg/mL throughout.

As for `Cc1cccc2c(-c3ccc4cc(Cl)ccc4n3)c[nH]c12` [Example 291], the MIC (in assay [1]; in the assay on Streptococcus pneumoniae; in assay [2]) was > 25 µg/mL in each case.

`N#Cc1ccc2[nH]cc(-c3ccc4cc(Cl)ccc4n3)c2c1` [Example 292]: in assay [1], the “MIC VREF” value was >25 µg/mL. In addition, the “MIC S. pneu” value in the assay with Streptococcus pneumoniae was > 25 µg/mL. Further, the “MIC MRSA” value in assay [2] was > 25 µg/mL.

Consider `NCCNC(=O)c1cc(-c2c[nH]c3ccc(Br)cc23)nc2cc(Cl)c(I)cc12` [Example 294], for which the MIC (in assay [1]; in the assay on Streptococcus pneumoniae; in assay [2]) was < 7 µg/mL throughout.

Take `NCCNC(=O)c1cc(-c2c[nH]c3ccc(Br)cc23)nc2cc(Cl)cc(Cl)c12` [Example 295]: the MIC (in assay [1]; in the assay on Streptococcus pneumoniae; in assay [2]) was < 7 µg/mL throughout.

On to `O=C(O)c1cc(-c2c[nH]c3ccc(Br)cc23)nc2cc(F)cc(Cl)c12` [Example 297], for which the MIC (in assay [1]; with Streptococcus pneumoniae; in assay [2]) was < 25 µg/mL throughout.
